The subject of the experiment is HeLa cells. The experiment can be described thus: Cytotoxicity studies in HeLa cells (MTT assay / crystal violet assay). It is filed as cell-based. The procedure:
Cell cultures. HeLa cells (ATCC) were used in the following cell culture studies. HeLa cells were maintained in DMEM (Dulbecco's Modified Eagle's Medium) supplemented with 10% fetal bovine serum (MidSci; S01520HI), and 1% penicillin-streptomycin (Sigma-Aldrich; P4333) at 37° C. with 5% CO2.
Cytotoxicity studies. Test compound was dissolved in DMSO to afford a stock solution. The final concentration of DMSO in the cell culture was 1% (v/v) in PBS. HeLa cells were seeded in 96-well plates one day before the experiment. Different concentrations of prodrug was added into the cell culture. The cells were then incubated for 48 h at 37° C. with 5% CO2. The cell viability was tested by the MTT assay described in Levitz, S. M., et al. J Infect Dis 1985, 152, 938-945. Specifically, after 48 h of incubation, 5 mg/mL MTT (3-(4,5-dimethylthiazol-2-yl)-2,5-diphenyltetrazolium bromide) was added into the cell culture. After incubation for 4 h, the supernatant was removed and 100 μL DMSO was added into the wells containing the cells. After shaking gently for 3 min, absorbance at 605 nm was read by a plate reader.
Cytotoxicity studies using crystal violet assay. The test compound was dissolved in DMSO to afford a stock solution. The final concentration of DMSO in cell culture was 1% (v/v) in PBS. HeLa cells were seeded in 96-well plates one day before the experiment. Different concentrations of the test compound were added into the cell culture. The cells were then incubated for 48 h at 37° C. with 5% CO2. Cell viability was tested by the crystal violet assay. Specifically, after 48 h of incubation, the cells were fixed in 100% methanol for 10 min and stained for 20 min with a 1% crystal violet solution in 50% methanol, followed by 5 repeated washings with PBS. 50 μL of DMSO was added to each well. After 20 min of incubation, the plates were analyzed in a microplate reader at 595 nm.
Similar results were observed when the alkyne concentration was decreased to 10 μM. For example, the IC50 of TPP-Dox prodrug 1c was about 2 μM in the presence of 2b, while the IC50 for Dox prodrug 1b was well over 10 μM in the presence of 10 μM of the alkyne trigger 2a (FIG. 3a). As controls, both the IC50 values of 1c and 2b alone were higher than 40 μM, and the treatment of 20 μM of alkyne 2a or 2b alone had no effect on cell viability. […] Without such an enrichment, the reaction is expected to be slow, resulting in a lower level of active Dox being released. […] Thus, mitochondrial enrichment leads to triggered release of the drug. The same concept is applicable to the delivery of drugs through other targeting approaches such as receptor-mediated drug delivery.

“And” between values parts separate entries of the source, which are not always exact repeats. Identical values can stand only once. Like-named read-outs stand apart in the source and are kept apart here. Where only a bound is given, the exact number is not on record here.

The IC50 is the concentration that gives 50% inhibition.

With `C#CCOc1ccc(-c2nnc(C(=O)NC3CC(OC4CC(O)(C(=O)CO)Cc5c(O)c6c(c(O)c54)C(=O)c4c(OC)cccc4C6=O)OC(C)C3O)nn2)cc1` (stereo not shown) [1b], the IC50 by setting is: (compound alone, 48 h, read-out: IC50 in Hela cell line) over 100 µM; (in the presence of 10 μM alkyne trigger 2a, 48 hours (FIG. 3a), read-out: IC50 in HeLa cells) over 10 µM; (in the presence of 20 μM alkyne 2a, 48 hours (FIG. 3b), read-out: IC50 in HeLa cells) about 10 µM; (in the presence of 50 μM alkyne 2b, 48 h, listed as Dox-prodrug 1b, read-out: IC50 in Hela cell line) about 2 µM; (in the presence of 50 μM alkyne 2b, 48 h, listed as Dox-prodrug lb, read-out: IC50 in Hela cell line) 2.3 ± 0.4 µM; (in the presence of 50 μM alkyne 2d, 48 h, listed as Dox-prodrug 1b, read-out: IC50 in Hela cell line) ~1.5 µM and 1.5 µM. The half-inhibitory concentration (IC50) (in the presence of 100 μM alkyne 2d, 48 h, read-out: IC50 in Hela cell line) is 1.3 ± 0.2 µM.
`COc1cccc2c1C(=O)c1c(O)c3c(c(O)c1C2=O)CC(O)(C(=O)CO)CC3OC1CC(NC(=O)c2nnc(-c3ccc(OCc4cn(CCCCCCCCC[P+](c5ccccc5)(c5ccccc5)c5ccccc5)nn4)cc3)nn2)C(O)C(C)O1` (stereo not shown) [1c]: the IC50 (Homo sapiens, HeLa, 48 h, compound alone, 48 h, read-out: IC50 in Hela cell line) is over 40 µM; the IC50 (Homo sapiens, HeLa, 48 h, in the presence of 10 μM alkyne 2b, 48 hours (FIG. 3a), read-out: IC50 in HeLa cells) was about 2 µM; the IC50 (Homo sapiens, HeLa, 48 h, in the presence of 20 μM TPP-alkyne 2b, 48 hours (FIG. 3b), read-out: IC50 in HeLa cells) was about 1.5 µM.

(Values after patent US11607458B2 (Georgia State University Research Foundation, Inc, priority 2017, dated 2023).)
